Assay [1] relates to human colon cancer cell SW620. Nature of the assay: MTT assay, growth of SW620 cells, compounds combined with CPT-11. The format is cell-based. The settings on record: Homo sapiens, SW-620, 120 h; combined with CPT-11 (205 nM medium), 5 days, MTT. The procedure:
Inhibitory effects of N,N-dimethyl-3-(4-(1-(tetrahydro-2H-pyran-4-yl)-[1,2,4]triazolo[4,3-a]quinoxalin-8-yl)phenoxy)propan-1-amine and its Analogues Combined with CPT-11 on the Growth of Human Colon Cancer Cell SW620 were Determined by MTT Assay
SW620 cells were digested by trypsinase, centrifuged at 800 rpm for 5 minutes, the supernatant was discarded, resuspended with fresh medium (RPMI 1640 medium+10% FBS) and counted. The cells were seeded into 96-well cell culture plate with appropriate cell density and incubated overnight in a 37° C. 5% CO2 incubator. The stock solutions of the tested compound and the reference compound AZD0156 were serially diluted to 8 concentrations by DMSO at the ratios of 1:3 and 1:10, respectively, the first concentration was 10 μM or 1 μM, and the last concentration was negative control of DMSO (0 μM, the final concentration of DMSO was 1%). 5 μL of each concentration was added to 120 μL of medium (25 times diluted) and mixed by shaking. The overnight cells were taken and the culture medium was removed, 195 μL of fresh medium containing 205 nM CPT-11 was added to each well, and 5 μL of diluted medium containing the corresponding concentration of the tested sample was added respectively, and the culture plate was then placed in the 5% CO2 cell culture incubator at 37° C. for 5 days. After removing the original solution, 100 pt of fresh serum-free DMEM medium containing MTT (0.5 mg/mL) was added to each well, the culture was continued. After 4 hours, the original solution was removed, 100 μL of DMSO was added into each well, the 96-well plates were shaken away from light for 10 minutes and placed in a multi-function reader to read the absorbance at the wavelength of 552/630/690 nm. GraphPad Prism 6.0 was used to analyze the data. The inhibitory activity of compounds on cell proliferation was plotted based on cell viability and compound concentration. The IC50 value was fitted by a sigmoidal dose response curve equation Y=100/(1+10^(Log C−Log IC50)), where C was the concentration of compound.
Table 3 summarizes the inhibitory effects of compounds combined with CPT-11 on the growth of human colon cancer cell SW620 (IC50).

Another assay deals with ATM enzyme (human) (Homo sapiens, UniProt Q13315). Nature of the assay: ATM kinase assay (HTRF, GST-cMyc-p53 substrate). The format is biochemical. The settings on record: 0.5 h, read-out: Inh (%) of ATM kinase; for inhibition at 1 µM: C 1 μm (final concentration of compound); for inhibition at 0.01 µM: C 0.01 μm (final concentration of compound); for inhibition at 0.1 µM: C 0.1 μm (final concentration of compound). The procedure:
In Vitro Inhibition of ATM by N,N-dimethyl-3-(4-(1-(tetrahydro-2H-pyran-4-yl)-[1,2,4]triazolo[4,3-a]quinoxalin-8-yl)phenoxy)propan-1-amine and its Analogues was Determined by ATM Kinase Assay
The reaction was initiated by the addition of a Mg/ATP mixture and incubation for 30 minutes at room temperature, the reaction was quenched by the addition of a stop solution containing EDTA. Finally, the detection buffer containing the d2-labeled anti-GST monoclonal antibody and the europium-labeled anti-phospho p53 (Ser15) antibody was added. The plate was then read in time resolved fluorescence mode and the homogeneous time resolved fluorescence (HTRF) signal was determined according to the equation: HTRF=10000×(Em665nm/Em620nm). Each compound sample was repeated in duplicate. The experiment negative control was all components except of the ATM enzyme and the positive control contained all components. All reactions were quenched by adding EDTA.
ATM kinase inhibition was detected by using the method described above. The curve equation for calculating IC50 value is as follows:
[formula] • wherein, C is the concentration of compound and D is the slope factor.

The structures appear in SMILES notation.

Chain of ATM enzyme (human) (Q13315 whole entry): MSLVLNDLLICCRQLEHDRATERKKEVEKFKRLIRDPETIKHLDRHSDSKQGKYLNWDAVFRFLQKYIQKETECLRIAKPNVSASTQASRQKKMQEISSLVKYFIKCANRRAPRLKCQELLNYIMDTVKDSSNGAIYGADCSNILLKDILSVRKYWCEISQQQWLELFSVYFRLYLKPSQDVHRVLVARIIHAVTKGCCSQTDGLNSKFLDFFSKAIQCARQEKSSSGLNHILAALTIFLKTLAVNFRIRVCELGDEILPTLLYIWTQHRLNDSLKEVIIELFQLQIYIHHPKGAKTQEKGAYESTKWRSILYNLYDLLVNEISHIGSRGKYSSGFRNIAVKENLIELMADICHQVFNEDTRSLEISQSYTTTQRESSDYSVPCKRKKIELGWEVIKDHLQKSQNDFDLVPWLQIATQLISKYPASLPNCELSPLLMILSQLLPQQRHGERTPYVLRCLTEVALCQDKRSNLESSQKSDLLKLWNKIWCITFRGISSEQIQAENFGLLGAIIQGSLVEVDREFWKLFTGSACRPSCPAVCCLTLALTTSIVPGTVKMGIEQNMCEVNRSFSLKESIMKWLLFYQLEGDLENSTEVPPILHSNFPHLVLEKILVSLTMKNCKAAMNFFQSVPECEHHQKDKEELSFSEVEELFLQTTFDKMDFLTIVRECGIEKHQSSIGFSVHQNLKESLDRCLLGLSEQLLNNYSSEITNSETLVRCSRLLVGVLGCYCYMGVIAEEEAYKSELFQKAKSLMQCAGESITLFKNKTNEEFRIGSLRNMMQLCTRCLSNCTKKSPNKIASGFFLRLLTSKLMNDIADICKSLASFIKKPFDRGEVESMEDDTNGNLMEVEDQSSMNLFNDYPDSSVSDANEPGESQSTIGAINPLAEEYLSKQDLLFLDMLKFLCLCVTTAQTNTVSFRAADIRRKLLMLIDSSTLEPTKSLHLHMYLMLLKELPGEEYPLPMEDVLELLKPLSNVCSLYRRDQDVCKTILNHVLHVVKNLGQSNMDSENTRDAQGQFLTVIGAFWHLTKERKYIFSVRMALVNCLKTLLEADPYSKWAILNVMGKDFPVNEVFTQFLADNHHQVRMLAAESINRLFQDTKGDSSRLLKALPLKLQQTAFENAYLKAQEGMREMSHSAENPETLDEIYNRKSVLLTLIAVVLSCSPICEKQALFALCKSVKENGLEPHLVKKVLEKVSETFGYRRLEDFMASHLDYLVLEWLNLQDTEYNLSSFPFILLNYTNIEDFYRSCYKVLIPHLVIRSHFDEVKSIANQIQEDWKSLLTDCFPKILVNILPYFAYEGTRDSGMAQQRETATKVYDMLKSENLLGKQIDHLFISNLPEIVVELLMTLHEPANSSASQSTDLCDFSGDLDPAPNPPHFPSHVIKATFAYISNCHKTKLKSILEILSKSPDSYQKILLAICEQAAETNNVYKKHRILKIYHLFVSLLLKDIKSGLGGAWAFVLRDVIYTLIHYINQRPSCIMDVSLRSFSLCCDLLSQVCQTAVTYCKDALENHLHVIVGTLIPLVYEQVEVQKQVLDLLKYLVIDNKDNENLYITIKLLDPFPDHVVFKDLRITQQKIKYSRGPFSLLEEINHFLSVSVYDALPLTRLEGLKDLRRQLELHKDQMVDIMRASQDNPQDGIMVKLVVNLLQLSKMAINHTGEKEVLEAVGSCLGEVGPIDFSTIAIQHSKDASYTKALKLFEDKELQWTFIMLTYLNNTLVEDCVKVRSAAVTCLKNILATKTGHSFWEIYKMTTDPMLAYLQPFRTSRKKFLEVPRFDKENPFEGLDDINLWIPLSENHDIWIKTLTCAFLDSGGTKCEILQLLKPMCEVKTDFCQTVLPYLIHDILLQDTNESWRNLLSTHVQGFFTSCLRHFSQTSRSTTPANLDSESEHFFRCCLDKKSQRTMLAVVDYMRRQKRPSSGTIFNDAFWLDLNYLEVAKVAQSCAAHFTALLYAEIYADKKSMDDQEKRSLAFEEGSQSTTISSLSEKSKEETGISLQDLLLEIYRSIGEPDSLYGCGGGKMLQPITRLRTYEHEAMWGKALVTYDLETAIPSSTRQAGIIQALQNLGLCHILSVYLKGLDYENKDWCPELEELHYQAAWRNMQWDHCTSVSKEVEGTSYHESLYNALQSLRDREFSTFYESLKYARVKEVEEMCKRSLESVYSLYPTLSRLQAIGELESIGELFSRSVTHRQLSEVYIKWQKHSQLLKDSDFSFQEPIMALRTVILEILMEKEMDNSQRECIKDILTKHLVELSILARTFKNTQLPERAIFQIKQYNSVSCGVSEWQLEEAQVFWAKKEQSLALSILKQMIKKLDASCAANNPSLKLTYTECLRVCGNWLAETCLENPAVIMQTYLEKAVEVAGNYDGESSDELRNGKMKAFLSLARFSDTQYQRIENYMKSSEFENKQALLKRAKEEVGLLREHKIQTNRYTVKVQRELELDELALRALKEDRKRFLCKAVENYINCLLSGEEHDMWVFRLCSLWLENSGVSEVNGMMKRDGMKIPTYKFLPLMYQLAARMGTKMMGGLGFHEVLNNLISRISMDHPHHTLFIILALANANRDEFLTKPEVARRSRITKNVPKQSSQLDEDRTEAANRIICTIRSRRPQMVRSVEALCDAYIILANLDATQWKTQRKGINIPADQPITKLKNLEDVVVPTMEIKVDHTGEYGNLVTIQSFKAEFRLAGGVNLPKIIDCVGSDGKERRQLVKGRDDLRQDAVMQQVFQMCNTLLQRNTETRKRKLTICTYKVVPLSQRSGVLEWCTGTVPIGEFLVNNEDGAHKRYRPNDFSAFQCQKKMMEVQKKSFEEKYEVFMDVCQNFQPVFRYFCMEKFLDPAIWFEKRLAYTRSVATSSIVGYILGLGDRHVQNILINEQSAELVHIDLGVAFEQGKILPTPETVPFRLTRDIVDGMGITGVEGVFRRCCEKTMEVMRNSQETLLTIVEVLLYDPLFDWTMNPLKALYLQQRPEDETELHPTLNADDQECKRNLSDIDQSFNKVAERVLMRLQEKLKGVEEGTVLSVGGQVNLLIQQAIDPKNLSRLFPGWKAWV

As to `CCNC1CCN(c2ccc(-c3ccc4ncc5nnc(N6C[C@@H](C)N(C)[C@@H](C)C6)n5c4c3)cc2F)CC1` [Example 96, N-ethyl-1-(2-fluoro-4-(1-((3S,5R)-3,4,5-trimethylpiperazin-1-yl)-[1,2,4]triazolo[4,3-a]quinoxalin-8-yl)phenyl)piperidin-4-amine], the IC50 in assay [1] is 15 nM.
For the molecule `CN(C)CCOc1ccc(-c2ccc3ncc4nnc(C5CCOCC5)n4c3c2)cc1` [Example 9, N,N-dimethyl-2-(4-(1-(tetrahydro-2H-pyran-4-yl)-[1,2,4]triazolo[4,3-a]quinoxalin-8-yl)phenoxy)ethan-1-amine], the inhibition at 1 µM at ATM enzyme (human) came out at 72%. The IC50 in assay [1] was 1940 nM.
In the case of `CN(C)CCCOc1ccc(-c2ccc3ncc4nnc(C5CCOCC5)n4c3n2)cc1Cl` [Example 140, 3-(2-chloro-4-(9-(tetrahydro-2H-pyran-4-yl)pyrido[3,2-e][1,2,4]triazolo[4,3-a]pyrazin-2-yl)phenoxy)-N,N-dimethylpropan-1-amine], in assay [1], the 50% inhibitory concentration (IC50) stood at 213 nM.
Still for that read-out and setting: the value for `CN(C)C1CCN(c2ccc(-c3ccc4ncc5nnc(N6CCCCC6)n5c4c3)cc2F)CC1` [Example 112, 1-(2-fluoro-4-(1-(piperidin-1-yl)-[1,2,4]triazolo[4,3-a]quinoxalin-8-yl)phenyl)-N,N-dimethylpiperidin-4-amine] was 21.9 nM.
Turning to `C[C@@H]1CN(c2ccc(-c3ccc4ncc5nnc(C6CCOCC6)n5c4c3)cc2)C[C@H](C)N1C` [Example 14, 1-(tetrahydro-2H-pyran-4-yl)-8-(4-((3S,5R)-3,4,5-trimethylpiperazin-1-yl)phenyl)-[1,2,4]triazolo[4,3-a]quinoxaline], on ATM enzyme (human), the inhibition at 0.01 µM is 20%, the inhibition at 0.1 µM is 52% and the inhibition at 1 µM came to 96%. Also, the IC50 in assay [1] was above 100000 nM.
For `CCNC1CCN(c2ccc(-c3ccc4ncc5nnc(C6CCOCC6)n5c4c3)cc2)CC1` [Example 43, N-ethyl-1-(4-(1-(tetrahydro-2H-pyran-4-yl)-[1,2,4]triazolo[4,3-a]quinoxalin-8-yl)phenyl)piperidin-4-amine], on ATM enzyme (human), the inhibition at 0.01 µM was 47%, the inhibition at 0.1 µM was found to be 89% and the inhibition at 1 µM was 100%. Moreover, the IC50 in assay [1] was 357 nM.
As for `C[C@@H]1CN(c2nnc3cnc4ccc(-c5ccc(OCCCN(C)C)nc5)cc4n23)C[C@H](C)N1C` [Example 26, N,N-dimethyl-3-((5-(1-((3S,5R)-3,4,5-trimethylpiperazin-1-yl)-[1,2,4]triazolo[4,3-a]quinoxalin-8-yl)pyridin-2-yl)oxy)propan-1-amine], the 50% inhibitory concentration (IC50) in assay [1] amounted to 57 nM.
Consider `CN(C)C1CCN(c2ccc(-c3ccc4ncc5nnc(C6CCOCC6)n5c4c3)cn2)CC1` [Example 15, N,N-dimethyl-1-(5-(1-(tetrahydro-2H-pyran-4-yl)-[1,2,4]triazolo[4,3-a]quinoxalin-8-yl)pyridin-2-yl)piperidin-4-amine], for which, on ATM enzyme (human), the inhibition at 0.01 µM was 33%, the inhibition at 0.1 µM amounted to 80% and the inhibition at 1 µM amounted to 98%. In assay [1], the IC50 worked out at 485 nM.
For `C[C@@H]1CN(c2nnc3cnc4ccc(-c5ccc(N6CCC(N(C)C)CC6)cc5)cc4n23)C[C@H](C)O1` [Example 103, 1-(4-(1-((2S,6R)-2,6-dimethylmorpholino)-[1,2,4]triazolo[4,3-a]quinoxalin-8-yl)phenyl)-N,N-dimethylpiperidin-4-amine], the IC50 in assay [1] is 176 nM.
On to `C[C@@H]1CN(c2nnc3cnc4ccc(-c5ccc(N6CCC(N(C)C)CC6)c(F)c5)cc4n23)C[C@H](C)O1` [Example 104, 1-(4-(1-((2S,6R)-2,6-dimethylmorpholino)-[1,2,4]triazolo[4,3-a]quinoxalin-8-yl)-2-fluorophenyl)-N,N-dimethylpiperidin-4-amine], for which the IC50 in assay [1] worked out at 28.2 nM.
In the case of `CN(C)CCCOc1ccc(-c2cnc3ncc4nnc(C5CCOCC5)n4c3c2)cn1` [Example 1, N,N-dimethyl-3-((5-(1-(tetrahydro-2H-pyran-4-yl)pyrido[2,3-e][1,2,4]triazolo[4,3-a]pyrazin-8-yl)pyridin-2-yl)oxy)propan-1-amine], the inhibition at 10 µM on ATM enzyme (human) (C 10 μm (final concentration of compound)) was 90%. In assay [1], the IC50 is above 100000 nM.
As to `CNC1CCN(c2ccc(-c3ccc4ncc5nnc(C6CCOCC6)n5c4c3)cc2)CC1` [Example 42, N-methyl-1-(4-(1-(tetrahydro-2H-pyran-4-yl)-[1,2,4]triazolo[4,3-a]quinoxalin-8-yl)phenyl)piperidin-4-amine], on ATM enzyme (human), the inhibition at 0.01 µM came to 68%, the inhibition at 0.1 µM came out at 90% and the inhibition at 1 µM came to 99%. Moreover, the IC50 in assay [1] is 211 nM.
Consider `CN(C)C1CCN(c2ccc(-c3ccc4ncc5nnc(CN6CCOCC6)n5c4n3)cc2)CC1` [Example 78, N,N-dimethyl-1-(4-(9-(morpholinomethyl)pyrido[3,2-e][1,2,4]triazolo[4,3-a]pyrazin-2-yl)phenyl)piperidin-4-amine], for which, at ATM enzyme (human), the inhibition at 0.01 µM came to 67%, the inhibition at 0.1 µM amounted to 94% and the inhibition at 1 µM came to 98%. Besides, the IC50 in assay [1] amounted to 664 nM.
With `CN(C)C1CCN(c2ccc(-c3ccc4ncc5nnc(CN6CCOCC6)n5c4c3)cc2)CC1` [Example 65, N,N-dimethyl-1-(4-(1-(morpholinomethyl)-[1,2,4]triazolo[4,3-a]quinoxalin-8-yl)phenyl)piperidin-4-amine], on ATM enzyme (human), the inhibition at 0.01 µM is 37%, the inhibition at 0.1 µM turned out to be 80% and the inhibition at 1 µM amounted to 100%. The IC50 in assay [1] is 402 nM.
Turning to `CNC1CCN(c2ccc(-c3ccc4ncc5nnc(N6C[C@@H](C)N(C)[C@@H](C)C6)n5c4n3)cc2F)CC1` [Example 117, 1-(2-fluoro-4-(9-((3S,5R)-3,4,5-trimethylpiperazin-1-yl)pyrido[3,2-e][1,2,4]triazolo[4,3-a]pyrazin-2-yl)phenyl)-N-methylpiperidin-4-amine], the IC50 in assay [1] amounted to 47.5 nM.
On to `CN(C)CCCOc1ccc(-c2ccc3ncc4nnc(N5CCCCC5)n4c3c2)cc1C(F)(F)F` [Example 111, N,N-dimethyl-3-(4-(1-(piperidin-1-yl)-[1,2,4]triazolo[4,3-a]quinoxalin-8-yl)-2-(trifluoromethyl)phenoxy)propan-1-amine], for which the IC50 in assay [1] amounted to 16.2 nM.
With `CN(C)CCCOc1ccc(-c2ccc3ncc4nnc(C5CCOCC5)n4c3n2)cc1F` [Example 139, 3-(2-fluoro-4-(9-(tetrahydro-2H-pyran-4-yl)pyrido[3,2-e][1,2,4]triazolo[4,3-a]pyrazin-2-yl)phenoxy)-N,N-dimethylpropan-1-amine], the concentration for half-maximal inhibition (IC50) in assay [1] came to 262 nM.
On the same count and under the same terms, the value for `CNC1CCN(c2ccc(-c3ccc4ncc5nnc(N6C[C@@H](C)N(C)[C@@H](C)C6)n5c4c3)cc2F)CC1` [Example 94, N-methyl-1-(2-fluoro-4-(1-((3S,5R)-3,4,5-trimethylpiperazin-1-yl)-[1,2,4]triazolo[4,3-a]quinoxalin-8-yl)phenyl)piperidin-4-amine] was 13 nM; that for `C[C@@H]1CN(c2nnc3cnc4ccc(-c5ccc(OCCCN(C)C)c(C(F)(F)F)c5)cc4n23)C[C@H](C)O1` [Example 102, N,N-dimethyl-3-(2-(trifluoromethyl)-4-(1-((2S,6R)-2,6-dimethylmorpholino)-[1,2,4]triazolo[4,3-a]quinoxalin-8-yl)phenoxy)propan-1-amine] was 21.1 nM.
On the same count and under the same terms, the value for `CCNC1CCN(c2ccc(-c3ccc4ncc5nnc(N6C[C@@H](C)N(C)[C@@H](C)C6)n5c4n3)cc2F)CC1` [Example 119, N-ethyl-1-(2-fluoro-4-(9-((3S,5R)-3,4,5-trimethylpiperazin-1-yl)pyrido[3,2-e][1,2,4]triazolo[4,3-a]pyrazin-2-yl)phenyl)piperidin-4-amine] was 43.1 nM.

The values above are taken from US10874670B2, “Substituted fused heteroaromatic compounds as kinase inhibitors and the use thereof” (IMPACT THERAPEUTICS, INC., priority 2017, dated 2020).
